IC50 data for 15 compounds are collected here from patent US20230203060A1 (GENFLEET THERAPEUTICS (SHANGHAI) INC., priority 2020, published 2023).

For orientation: pIC50 means the IC50 on a negative log10 scale, so that one unit is a factor of ten. The low end stands for a large IC50, the high end for a small IC50.

pIC50: −log10 of the molar value.

The target in this experiment is T1, KRAS G12C (Homo sapiens, UniProt P01116, G12C).
T1 construct: purchased Reactionbiology
T1 sequence (P01116 1-188 isoform P01116-2 G12C): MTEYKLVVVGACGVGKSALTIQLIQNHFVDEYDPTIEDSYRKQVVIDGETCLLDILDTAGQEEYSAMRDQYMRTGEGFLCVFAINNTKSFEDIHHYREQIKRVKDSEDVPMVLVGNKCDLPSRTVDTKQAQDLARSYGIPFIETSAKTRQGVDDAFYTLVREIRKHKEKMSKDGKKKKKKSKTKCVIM
As to the kind of experiment: KRAS G12C NEA-HTRF experiment (SOS1-catalyzed displacement of GDP by GTP). Format: biochemical. The procedure, abridged:
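His-tagged KRAS G12C preloaded with DY647-GDP was preincubated 15 min at 20 °C with compound, then exchanged with SOS1 (0.2 μM working solution) and GTP (200 μM working solution) for 2 h at 20 °C in the dark. HTRF 665/615 nm ratio with anti-His-Tb was normalised to T0 and no-compound controls; IC50 by four-parameter fit.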
Background: Time-resolved FRET reads energy transfer from a long-lived donor to a nearby acceptor.
In the case of `C=CC(=O)N1CCN2C(=O)c3c(OC4CCCN(C)C4)nc(-c4c(O)cccc4F)c(Cl)c3OC[C@H]2C1` (stereo partly drawn) [Z43, (6aR)-8-acryloyl-4-chloro-3-(2-fluoro-6-hydroxyphenyl)-1-((1-methylpiperidin-3-yl)oxy)-6,6a,7,8,9,10-hexahydro-12H-pyrazino[2,1-c]pyrido[3,4-f][1,4]oxazepin-12-one], the pIC50 is 6.77.

`C=CC(=O)N1CCN2C(=O)c3c(N4CC(N5CCN(C)CC5)CC4(C)C)nc(-c4ccccc4F)c(Cl)c3OC[C@H]2C1` (stereo partly drawn) [Z454, (6aR)-8-acryloyl-4-chloro-1-(2,2-dimethyl-4-(4-methylpiperazin-1-yl)pyrrolidin-1-yl)-3-(2-fluorophenyl)-6,6a,7,8,9,10-hexahydro-12H-pyrazino[2,1-c]pyrido[3,4-f][1,4]oxazepin-12-one] showed a pIC50 of 7.70.

As for `C=CC(=O)N1CCN2C(=O)c3c(N4C[C@@H](C)N(C)C[C@@H]4C)nc(-c4ccccc4F)c(Cl)c3OC[C@H]2C1` [Z464], the pIC50 is 5.71.

For `C=CC(=O)N1CCN2C(=O)c3c(N4C[C@@H](N5CC(F)C5)CC4(C)C)nc(-c4ccccc4F)c(Cl)c3OC[C@H]2C1` [Z480-1, (R)-8-acryloyl-4-chloro-1-((S)-4-(3-fluoroazetidin-1-yl)-2,2-dimethylpyrrolidin-1-yl)-3-(2-fluorophenyl)-6,6a,7,8,9,10-hexahydro-12H-pyrazino[2,1-c]pyrido[3,4-f][1,4]oxazepin-12-one], the pIC50 was 7.75.

Take `C=CC(=O)N1CCN2C(=O)c3c(N4C[C@@H](O)CC4(C)C)nc(-c4ccccc4F)c(F)c3OC[C@H]2C1` (single isomer, unassigned) [Z408-1]: the pIC50 is 6.80.

The compound `C=CC(=O)N1CCN2C(=O)c3c(N4C[C@@H](NC)CC4(C)C)nc(-c4ccccc4F)c(Cl)c3OC[C@H]2C1` (single isomer, unassigned) [Z661-1] showed a pIC50 of 7.47.

In turn, `C=CC(=O)N1CCN2C(=O)c3c(N4CCN(C)[C@@H](C)[C@@H]4C)nc(-c4ccccc4F)c(Cl)c3OC[C@H]2C1` [Z653, (R)-8-acryloyl-4-chloro-3-(2-fluorophenyl)-1-((2S,3S)-2,3,4-trimethylpiperazin-1-yl)-6,6a,7,8,9,10-hexahydro-12H-pyrazino[2,1-c]pyrido[3,4-f][1,4]oxazepin-12 (6aH)-one] gave a pIC50 of 6.53.

`C=CC(=O)N1CCN2C(=O)c3c(N4CC(O)CC4(C)C)nc(-c4c(O)cccc4F)c(Cl)c3OC[C@H]2C1` (stereo partly drawn) [Z50, (6aR)-8-amyloyl-4-chloro-3-(2-fluoro-6-hydroxyphenyl)-1-(4-hydroxy-2,2-dimethylpyrrolidin-1-yl)-6,6a,7,8,9,10-hexahydro-12H-pyrazino[2,1-c]pyrido[3,4-f][1,4]oxazepin-12-one] gave a pIC50 of 7.68.

Turning to `C=CC(=O)N1CCN2C(=O)c3c(N4CCC[C@H]4C)nc(-c4c(O)cccc4F)c(Cl)c3OC[C@H]2C1` [Z48, (6aR)-8-acryloyl-1-((R)-2-methylpyrrolidin-1-yl)-4-chloro-3-(2-fluoro-6-hydroxyphenyl)-6,6a,7,8,9,10-hexahydro-12H-pyrazino[2,1-c]pyrido[3,4-f][1,4]oxazepin-12-one], the negative logarithm of the IC50 (pIC50) is 6.82.

`C=CC(=O)N1CCN2C(=O)c3c(N4C[C@@H](N5CC(C#N)C5)CC4(C)C)nc(-c4ccccc4F)c(Cl)c3OC[C@H]2C1` (single isomer, unassigned) [Z637-2]: the pIC50 was 7.62.

Take `C=CC(=O)N1CCN2C(=O)c3c(N4C[C@H](N(C)C)CC4(C)C)nc(-c4cccc(C)c4F)c(Cl)c3OC[C@H]2C1` (single isomer, unassigned) [Z472-2]: the pIC50 is 7.22.

With `C=CC(=O)N1CCN2C(=O)c3c(N4CC(N5CCN(C)CC5)CC4(C)C)nc(-c4ccccc4F)c(F)c3OC[C@H]2C1` (stereo partly drawn) [Z474, (6aR)-8-acryloyl-1-(2,2-dimethyl-4-(4-methylpiperazin-1-yl)pyrrolidin-1-yl)-4-fluoro-3-(2-fluorophenyl)-6,6a,7,8,9,10-hexahydro-12H-pyrazino[2,1-c]pyrido[3,4-f][1,4]oxazepin-12-one], the pIC50 was 6.98.

`C=CC(=O)N1CCN2C(=O)c3c(N4C[C@@H](N(C)CC(F)F)CC4(C)C)nc(-c4ccccc4F)c(Cl)c3OC[C@H]2C1` (single isomer, unassigned) [Z659-1] had a pIC50 of 7.11.

On to `C=CC(=O)N1CCN2C(=O)c3c(N4C[C@H](N(C)CC(F)(F)F)CC4(C)C)nc(-c4ccccc4F)c(Cl)c3OC[C@H]2C1` (single isomer, unassigned) [Z493], for which the pIC50 was 6.90.

For the compound `C=CC(=O)N1CCN2C(=O)c3c(N4CCN(C)C[C@@H]4C)nc(-c4c(F)cccc4C(F)F)c(Cl)c3OC[C@H]2C1` [Z456, (6aR)-8-acryloyl-4-chloro-3-(2-(difluoromethyl)-6-fluorophenyl)-1-((S)-2,4-dimethylpiperazin-1-yl)-6,6a,7,8,9,10-hexahydro-12H-pyrazino[2,1-c]pyrido[3,4-f][1,4]oxazepin-12-one], the pIC50 is 6.83.
